Structures can show the parent of a compound that is named as a salt.
Target: Steroidogenic factor 1 (Homo sapiens, UniProt Q13285)
Test: SF-1 inhibitor potency, dose response, cell-based, CHO-K1, Gal4-SF-1 LBD, luciferase luminescence (AID 600)
[1] = inactive by the depositor's call

Sequence of Steroidogenic factor 1 (Q13285 whole entry, the tested form may be a part): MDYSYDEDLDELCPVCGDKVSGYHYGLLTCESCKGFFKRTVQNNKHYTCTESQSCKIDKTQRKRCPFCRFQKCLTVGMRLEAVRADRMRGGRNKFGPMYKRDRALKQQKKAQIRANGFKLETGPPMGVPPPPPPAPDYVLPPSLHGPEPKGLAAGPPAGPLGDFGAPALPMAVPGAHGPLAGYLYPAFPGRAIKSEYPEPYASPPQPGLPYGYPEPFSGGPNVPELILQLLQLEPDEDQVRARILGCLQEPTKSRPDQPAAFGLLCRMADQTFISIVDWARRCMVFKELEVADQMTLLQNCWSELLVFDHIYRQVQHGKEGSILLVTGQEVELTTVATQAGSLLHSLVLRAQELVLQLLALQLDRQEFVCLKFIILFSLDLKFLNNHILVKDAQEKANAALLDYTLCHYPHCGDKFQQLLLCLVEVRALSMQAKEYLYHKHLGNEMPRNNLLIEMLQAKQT

| SMILES | IC50 [µM] | IC50 [1] [µM] |
| --- | --- | --- |
| Cc1cccc(-n2ncc3c(N4CCOCC4)ncnc32)c1 [4-[1-(3-methylphenyl)-4-pyrazolo[3,4-d]pyrimidinyl]morpholine] | 4.02 |  |
| CCN(C(=O)c1ccc(C(C)(C)C)cc1)c1nnc(Cn2nnc3ccccc32)s1 [MLS000072751] |  | 10.4 |
| CCCCOc1ccccc1NC(=O)Cn1c(-c2nonc2N)nc2ccccc21 [2-[2-(4-amino-1,2,5-oxadiazol-3-yl)-1-benzimidazolyl]-N-(2-butoxyphenyl)acetamide] | > 3.67 |  |
| CCn1nc(-c2ccccc2)nc2c(=O)n(C)c(=O)nc1-2 [1-Ethyl-6-methyl-3-phenyl-1H-pyrimido[5,4-e][1,2,4]triazine-5,7-dione] | 4.73 |  |
| O=C(NCCOc1ccccc1)c1ccc2c(c1)OCO2 [MLS000100028] | > 1.22 |  |
| O=NC1c2cc(S(=O)(=O)N3CCCCC3)ccc2-c2ccc(S(=O)(=O)N3CCCCC3)cc21 [2,7-Bis-(piperidine-1-sulfonyl)-fluoren-9-one oxime] | 1.51 |  |
| CCn1nc(-c2cccs2)nc2c(=O)n(C)c(=O)nc1-2 [1-ethyl-6-methyl-3-thiophen-2-yl-pyrimido[5,4-e][1,2,4]triazine-5,7-dione] | 2.65 |  |
| Cc1ccc(-c2cc3c(nn2)-c2ccccc2C3=O)cc1 [3-(4-methylphenyl)-5H-indeno[1,2-c]pyridazin-5-one] |  | 13 |
| Oc1c(CN2CCOCC2)cc(COCc2ccccc2)c2cccnc12 [5-(benzoxymethyl)-7-(morpholinomethyl)quinolin-8-ol] | 6.06 |  |
| COC(=O)/C(=C1/Oc2cc(C)oc(=O)c2S1)C(F)(F)F [methyl (2E)-3,3,3-tris(fluoranyl)-2-(6-methyl-4-oxidanylidene-[1,3]oxathiolo[4,5-c]pyran-2-ylidene)propanoate] | 4.69 |  |
| O=S(=O)(NCc1cn2ccsc2n1)c1ccc(Oc2ccccc2)cc1 [MLS000094195] |  | 34.5 |
| O=C(OC1CCOC1=O)c1ccc(-c2nc3ccccc3s2)s1 (stereo not drawn) [(2-oxidanylideneoxolan-3-yl) 5-(1,3-benzothiazol-2-yl)thiophene-2-carboxylate] | 5.75 |  |
| COc1cccc2c1C(=O)c1c(O)c3c(c(O)c1C2=O)C[C@@](O)(C(=O)CO)C[C@@H]3O[C@H]1C[C@H](N)[C@H](O)[C@H](C)O1 [MLS000028393] | 0.964 |  |
| COc1ccc(-c2cc(C(=O)O)c(C)o2)cc1OC [5-(3,4-dimethoxyphenyl)-2-methyl-3-furancarboxylic acid] |  | 10.8 |
| Cn1ncnc2c(=O)n(C)c(=O)nc1-2 | 0.75 |  |
| O=C(CSc1nnnn1-c1ccccc1)Nc1nsc(-c2ccc(Cl)cc2)n1 [MLS000085595] | 4.9 |  |
| COc1ccc(-c2nc(-c3ccccc3)no2)c(OC)c1 [5-(2,4-dimethoxyphenyl)-3-phenyl-1,2,4-oxadiazole] | 3.52 |  |
| O=C1c2ccccc2C(=O)C1c1ccc2ccccc2n1 | 6.72 |  |
| O=c1c2ccccc2cnn1-c1nc2ccccc2s1 [2-(1,3-benzothiazol-2-yl)-1-phthalazinone] | 2.12 |  |
| CCSc1nnc(NC(=O)c2ccccn2)s1 [MLS000056851] | > 3.67 |  |
| O=C(c1ccc(Cl)cc1)N1CCCCC(Sc2nnc(-c3ccc4c(c3)OCO4)o2)C1=O (stereo not drawn) [3-[[5-(1,3-benzodioxol-5-yl)-1,3,4-oxadiazol-2-yl]sulfanyl]-1-(4-chlorobenzoyl)azepan-2-one] | 1.07 |  |
| O=S1(=O)Nc2c(ccc3cccnc23)-c2ccccc21 [5H-quinolino[8,7-c][1,2]benzothiazine 6,6-dioxide] | 5.46 |  |
| Oc1c(CN2CCN(c3ccccn3)CC2)cc(Cl)c2cccnc12 [5-chloranyl-7-[(4-pyridin-2-ylpiperazin-1-yl)methyl]quinolin-8-ol] | 7.6 |  |
| CC1CCCCC1NS(=O)(=O)c1ccc(S(=O)(=O)NCc2ccncc2)cc1 (stereo not drawn) [4-N-(2-methylcyclohexyl)-1-N-(pyridin-4-ylmethyl)benzene-1,4-disulfonamide] | > 33 |  |
| O=C(c1ccccc1)C(CCC(CN1CCOCC1)C(=O)c1ccccc1)CN1CCOCC1 (stereo not drawn) [2,5-bis(4-morpholinylmethyl)-1,6-diphenylhexane-1,6-dione;hydrochloride] | 10.6 |  |
| CCc1ccc2oc(-c3ccc(N)cc3)nc2c1 [4-(5-ethyl-1,3-benzoxazol-2-yl)aniline] | > 3.67 |  |
| CC1(C)COCN1S(=O)(=O)c1ccc(C(=O)Nc2nnc(-c3ccc(Cl)s3)o2)cc1 [MLS000086346] | 7.61 |  |
| CC[C@H]1CN2CCc3cc(OC)c(OC)cc3[C@@H]2C[C@@H]1C[C@H]1NCCc2cc(OC)c(OC)cc21 | 0.202 |  |
| Nc1cccc(-c2nc3ccc(N)cc3s2)c1 [2-(3-Amino-phenyl)-benzothiazol-6-ylamine] | > 3.67 |  |

Further lines, results first:

| IC50 [µM] | IC50 [1] [µM] | SMILES |
| --- | --- | --- |
| 5.34 |  | c1ccc2c(c1)CCN(c1nc3cc4c(cc3s1)OCCO4)C2 [2-(3,4-dihydro-1H-isoquinolin-2-yl)-6,7-dihydro-[1,4]dioxino[2,3-f][1,3]benzothiazole] |
| > 3.67 |  | CCN(CC)c1ccc2c(c1)OC(=N)C(C#N)C2c1cccnc1 (stereo not drawn) [2-amino-7-(diethylamino)-4-(3-pyridinyl)-4H-1-benzopyran-3-carbonitrile] |
| 5.65 |  | c1ccc(N2CCN(c3nc(-c4ccccn4)nc4ccccc34)CC2)cc1 [4-(4-phenyl-1-piperazinyl)-2-(2-pyridinyl)quinazoline] |
| 0.058 |  | CNC(=O)CCc1nc(-c2ccc(C(C)(C)C)cc2)no1 [3-[3-(4-tert-butylphenyl)-1,2,4-oxadiazol-5-yl]-N-methyl-propanamide] |
|  | 11.1 | c1csc(CCNc2ncnc3sc4c(c23)CCC4)c1 [7,8-dihydro-6H-cyclopenta[4,5]thieno[1,2-c]pyrimidin-1-yl-[2-(2-thienyl)ethyl]amine] |
| 5.75 |  | COc1ccc(C(=O)Nn2c(SCC(=O)NCc3ccco3)nc3ccccc3c2=O)cc1 [MLS000097349] |
| 1.06 |  | Fc1ccc2[nH]c3c(N4CCN(c5ccccc5)CC4)ncnc3c2c1 |
| 5.04 |  | COc1cc2nc(S)n3nc(CCn4nc(C)cc4C)nc3c2cc1OC |
| 3.42 |  | Cc1cc(C)n(-c2ccc3cccc(NS(C)(=O)=O)c3n2)n1 [MLS000062301] |
| 0.292 |  | COc1ccc(-n2ncc3c(N(C)C4CCCCC4)ncnc32)cc1 [MLS000100813] |
| 3.7 |  | O=C(Nc1nc2cc3c(cc2s1)OCO3)C1=COCCO1 [MLS000103798] |
| > 0.00503 |  | Cc1cc(C=c2sc3nc4ccccc4n3c2=O)c(C)n1-c1ccccn1 [2-[(2,5-dimethyl-1-pyridin-2-yl-pyrrol-3-yl)methylidene]-[1,3]thiazolo[3,2-a]benzimidazol-1-one] |
| 4.4 |  | O=C(CSc1nnc(COc2cccc3cccnc23)o1)N1CCc2ccccc21 [1-(2,3-Dihydro-indol-1-yl)-2-[5-(quinolin-8-yloxymethyl)-[1,3,4]oxadiazol-2-ylsulfanyl]-ethanone] |
|  | 16.9 | COc1cc(CSc2nnnn2-c2ccc(C)cc2)cc(OC)c1OC [1-(4-methylphenyl)-5-[(3,4,5-trimethoxybenzyl)thio]-1H-tetrazole] |
| 8.2 |  | Cc1cc(C)n(-c2nc(NC(C)(C)C)nc(NC(C)(C)C)n2)n1 [2-N,4-N-ditert-butyl-6-(3,5-dimethylpyrazol-1-yl)-1,3,5-triazine-2,4-diamine] |
| > 3.67 |  | Clc1ccc(-c2nnc(NC3=NCCCCC3)o2)cc1 |
| 7.8 |  | Fc1ccc2[nH]c3c(N4CCN(Cc5ccc6c(c5)OCO6)CC4)ncnc3c2c1 [4-[4-(1,3-benzodioxol-5-ylmethyl)-1-piperazinyl]-8-fluoro-5H-pyrimido[5,4-b]indole] |

| IC50 [µM] | IC50 [1] [µM] | SMILES |
| --- | --- | --- |
| 6.81 |  | c1ccc2nc(-c3nc4ccccc4o3)ccc2c1 [2-(1,3-benzoxazol-2-yl)quinoline] |
| 5.11 |  | CCN(CC)c1ccc2cc(NC(=O)CCC(=O)O)c(=O)oc2c1 [4-[[7-(diethylamino)-2-keto-chromen-3-yl]amino]-4-keto-butyric acid] |
| 9.87 |  | COCCn1c(C)cc(C(=O)COC(=O)c2[nH]nc3ccccc23)c1C [SMR000068187] |
| > 11 |  | CN(C)c1ccc(N=CCC(=O)c2ccccc2)cc1 [(E)-3-[4-(dimethylamino)anilino]-1-phenyl-2-propen-1-one] |
|  | 19.7 | COc1ccccc1CC(=O)N1CCN(c2cccc(C(F)(F)F)c2)CC1 [2-(2-methoxyphenyl)-1-[4-[3-(trifluoromethyl)phenyl]-1-piperazinyl]ethanone] |
| 0.993 |  | CN(C)C(=O)CCc1nc(-c2ccc(C(C)(C)C)cc2)no1 [3-[3-(4-tert-butylphenyl)-1,2,4-oxadiazol-5-yl]-N,N-dimethyl-propanamide] |
| > 1.22 |  | CCOc1ccccc1C(=O)N1CCN(c2cccc(Cl)c2)CC1 [1-(3-chlorophenyl)-4-(2-ethoxybenzoyl)piperazine] |
| > 3.67 |  | O=C(NCc1ccco1)c1ccc2nc3sc4c(c3c(=O)n2c1)CCCC4 [MLS000091875] |
| 7.93 |  | CCOC(=O)N1CCN(C(=O)C2CCN(c3ncnc4c3sc3cccc(F)c34)CC2)CC1 [4-[1-(9-fluorobenzothiopheno[3,2-d]pyrimidin-4-yl)isonipecotoyl]piperazine-1-carboxylic acid ethyl ester] |
| 11.3 |  | CCOC(=O)c1[n-]c2ccccc2c1[N+]#N [(Z)-(3-diazonio-2-indolylidene)-ethoxymethanolate] |
| 5.25 |  | CC(C)(C)c1ccc(-c2cc(N)[nH]n2)cc1 [SMR000095263] |
|  | 11.4 | Cc1ccc(NC(=O)Cc2nn(C)c(=O)c3ccccc23)cc1F [MLS000047015] |
|  | 10.1 | COc1ccc(CCNc2nc(C)nc3c2oc2ccccc23)cc1OC [MLS000040997] |
| 2.6 |  | CC(=O)c1c(C)[nH]c(C(=O)OCCCCN2C(=O)c3ccccc3C2=O)c1C [4-acetyl-3,5-dimethyl-1H-pyrrole-2-carboxylic acid 4-(1,3-dioxo-2-isoindolyl)butyl ester] |
| 6.09 |  | O=C(CC=Nc1ccccn1)c1ccc(Cl)cc1 [(Z)-1-(4-chlorophenyl)-3-(2-pyridinylamino)-2-propen-1-one] |
| 0.098 |  | N#Cc1c(NC(=O)CSc2nc[nH]n2)sc2c1CCCCC2 [N-(3-cyano-5,6,7,8-tetrahydro-4H-cyclohepta[b]thien-2-yl)-2-(1H-1,2,4-triazol-3-ylthio)acetamide] |
| 7.31 |  | Cc1ccc2[nH]c3c(N4CCN(Cc5ccc6c(c5)OCO6)CC4)ncnc3c2c1 |

— BindingDB's records for doi:10.7270/Q2319T8T (The Scripps Research Institute Molecular Screening Center, 2007)
